Data reported in US6737383B1, “Herbicidal oxadiazolidines” (priority 1999, dated 2004).

Experiments:
[1] = system: crabgrass; assay: Test A crabgrass; type: in vivo, Digitaria spp.; details: 0 to 10 scale where 0 is no effect and 10 is complete control
Procedure: Seeds of barnyardgrass (Echinochloa crus-galli), crabgrass (Digitaria spp.), morningglory (Ipomoea spp.), and velvetleaf (Abutilon theophrasti) were planted into a sandy loam soil and treated preemergence by soil drench with test chemicals formulated in a non-phytotoxic solvent mixture which includes a surfactant At the same time, these crop and weed species were also treated postemergence sprayed to runoff, with test chemicals formulated in the same manner.
Plants ranged in height from two to eighteen cm and were in the one to two leaf stage for the postemergence treatment. Treated plants and untreated controls were maintained in a greenhouse for approximately eleven days, after which all treated plants were compared to untreated controls and visually evaluated for injury. Plant response ratings, summarized in Table A, are based on a 0 to 10 scale where 0 is no effect and 10 is complete control.

[2] = system: morningglory; assay: Test A morningglory; type: in vivo, Ipomoea spp.; details: 0 to 10 scale where 0 is no effect and 10 is complete control
In short: (§1)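 Ratings came from visual comparison with untreated plants about eleven days after treatment, scored 0 for no effect through 10 for complete control. Both soil-drench preemergence and runoff-spray postemergence applications were made at the same time.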

[3] = system: barnyardgrass; assay: Test A barnyardgrass; type: in vivo, Echinochloa crus-galli; details: 0 to 10 scale where 0 is no effect and 10 is complete control
In short: as §1

[4] = system: surinam grass; assay: Test C postemergence surinam grass; type: in vivo, Brachiaria decumbens; details: 0 to 100 scale, 0 no effect, 100 complete control
Procedure: Compounds evaluated in this test were formulated in a non-phytotoxic solvent mixture which included a surfactant and applied to plants that were grown for various periods of time before treatment (postemergence application). A mixture of sandy loam soil and greenhouse potting mix in a 60:40 ratio was used for the postemergence test.
Plantings of these crops and weed species were adjusted to produce plants of appropriate size for the postemergence test. All plant species were grown using normal greenhouse practices. Crop and weed species include arrowleaf sida (Sida rhombifolia), barnyardgrass (Echinochloa crus-galli), cocklebur (Xanthium strumarium), common ragweed (Ambrosia elatior), corn (Zea mays), cotton (Gossypium hirsutum), eastern black nightshade (Solanum ptycanthum), fall panicum (Panicum dichotomiflorum), field bindweed (Convolvulus arvensis), giant foxtail (Setaria faberii), hairy beggarticks (Bidens pilosa), ivyleaf morningglory (Ipomoea hederacea), johnsongrass (Sorghum halepense), ladysthumb smartweed (Polygonum persicaria), lambsquarters (Chenopodium album), large crabgrass (Digitaria sanguinalis), purple nutsedge (Cyperus rotundus), redroot pigweed (Amaranthus retroflexus), soybean (Glycine max), surinam grass (Brachiaria decumbens), velvetleaf (Abutilon theophrasti) and wild poinsettia (Euphorbia heterophylla).
Treated plants and untreated controls were maintained in a greenhouse for approximately 14, to 21 days, after which all treated plants were compared to untreated controls and visually evaluated. Plant response ratings, summarized in Table C, were based upon a 0 to 100 scale where 0 was no effect and 100 was complete control. A dash response (−) means no test result.

[5] = system: Panicum dichotomiflorum (PANDI); assay: Test F preemergence, alone and in mixture with rimsulfuron, PANDI; type: in vivo; details: 21 days after treatment, 0-100 scale
Procedure: (§2) Abutilon theophrasti (ABUTH), Chenopodium album (CHEAL), Amaranthus rudis (AMATA), Setaria faberii (SETFA), Panicum dichotomiflorum (PANDI), and Digitaria sanguinalis (DIGSA) were grown from seed in pots of an artificial potting mixture in a greenhouse. Compounds of the present invention were applied at 70 and 105 g ai/ha preemergence. Rimsulfuron was applied at 8.8 and 17.5 g ai/ha. Mixtures of the compounds of the present invention and rimsulfuron were also applied.
(§3) Following application, the plants were maintained by watering as needed. A fertilizer solution of Peter's 20-20-20 (10 pounds/5 gallons of water) plus Sprint 330, a Iron Chelate micronutrient, (113.5 grams/5 gallons of water) was injected into the water with an Anderson fertilizer injection system to provide approximately 219 ppm of nitrogen with each watering. Artificial lighting was used to supplement natural light to produce a 14 hour photoperiod and: an additional one hour light period was used between 1:00 am to 2:00 am for a night interruption. Greenhouse temperatures were targeted for 27° C. in the day and 21° C. at night. At 21 days after treatment, all plants were evaluated for injury as compared to control plants that were sprayed only with non-phytotoxic solvent.
(§4) Colby's equation was used to calculate the expected additive herbicidal effect of the mixtures of Compound 21 and the mixture partners listed above. […]

[6] = system: Chenopodium album (CHEAL); assay: Test F preemergence, alone and in mixture with rimsulfuron, CHEAL; type: in vivo; details: 21 days after treatment, 0-100 scale
Procedure: as §2, §3, §4

[7] = system: common pursiane; assay: Test D common purslane; type: in vivo, Portulaca oleracea; details: Postemergence, 0 to 100 scale
[8] = system: certain weeds; assay: Test F overall statement on synergism with rimsulfuron (Colby's equation); type: in vivo; details: combinations with rimsulfuron, preemergence
Procedure: as §3, with “Abutilon theophrasti (ABUTH), Chenopodium album (CHEAL), Amaranthus rudis (AMATA), Setaria […]), Panicum dichotomiflorum (PANDI), and Digitaria sanguinalis (DIGSA) were grown from seed in pots of an artificial potting mixture in a greenhouse. Compounds of the present invention were applied at 70 and 105 g ai/ha preemergence. Rimsulfuron was applied at 8.8 and 17.5 g ai/ha. Mixtures of the compounds of the present invention and rimsulfuron were also applied. Following” for “Following”, “solvent. […] Colby's equation was used to calculate the expected additive herbicidal effect of the mixtures of Compound 21 and the mixture partners listed above. […]” for “solvent.”

[9] = Alone: Cmpd. rate 70, Rimsulfuron 0
[10] = Alone: Cmpd. rate 105, Rimsulfuron 0
[11] = Rate 16 g/ha, 0 no injury, 100 complete control
[12] = Rate 32 g/ha, 0 no injury, 100 complete control
[13] = Rate 64 g/ha, 0 no injury, 100 complete control
[14] = Rate 125 g/ha, 0 no injury, 100 complete control

Structure (SMILES)	Plant response rating, Crabgrass ([1]; Postemergence, Rate 1000 g/ha)	Plant response rating, Crabgrass ([1]; Pre-emergence, Rate 2000 g/ha)	Plant response rating, Morningglory ([2]; Postemergence, Rate 1000 g/ha)	Plant response rating, Morningglory ([2]; Pre-emergence, Rate 2000 g/ha)	Plant response rating, Barnyardgrass ([3]; Postemergence, Rate 1000 g/ha)	Plant response rating, Barnyardgrass ([3]; Pre-emergence, Rate 2000 g/ha)	Plant response rating, Surinam grass ([4]; Rate 140 g/ha)	Plant response rating, Surinam grass ([4]; Rate 280 g/ha)	Plant response rating, Surinam grass ([4]; Rate 560 g/ha)	Plant response rating, Surinam grass ([4]; Rate 1120 g/ha)	PANDI Observed [5, 9]	PANDI Observed [5, 10]	CHEAL Observed [6, 9]	CHEAL Observed [6, 10]	Plant response rating, C. purslane [7, 11]	Plant response rating, C. purslane [7, 12]	Plant response rating, C. purslane [7, 13]	Plant response rating, C. purslane [7, 14]	Plant response rating, C. purslane ([7]; Rate 250 g/ha)	Weed control of combination with rimsulfuron compared with expectation from Colby's equation [8]
CCN(CC)C(=O)n1oc(=O)n(-c2c(C)cccc2C)c1=O [Compound 2]	0	2	0	0	8	9														
CC(C)N(C(=O)n1oc(=O)n(C)c1=O)c1ccc(F)cc1 [Compound 138]							10	40	85	90										
CC(C)N(C(=O)n1oc(=O)n(C2CC2)c1=O)c1ccc(F)cc1 [Compound 242]							0	40	85	90	60%	80%	30%	100%	0	0	0	0	0	better control of certain weeds than expected
CC(C)N(C(=O)n1oc(=O)n(C2CCCCCC2)c1=O)c1ccc(F)cc1F [Compound 342]															0	0	0	0	0	
